Assay results as given in PMC6573034 (Nature Communications, 2019).
“Also recorded” adds a separate entry of the source.

What was measured:
Type in all cases: cell-based
SfMCT [1] = target: T1, SfMCT (Syntrophobacter fumaroxidans, UniProt A0LNN5); conditions: for reduction of [14C]L-lactate uptake / competition with [14C]L-lactate uptake (in words): competitor 1 mM; for Relative uptake of [14C]L-lactate (in %): WT SfMCT, competitor 1 mM final concentration, normalized to control without competitor
T1 construct: expressed in transfected cells; host or cells: E. coli JA202 (MC4100 glcA::cat lldP::kan), plasmid pEXT20-SfMCT-3C-10His
T1 sequence (A0LNN5 1-412): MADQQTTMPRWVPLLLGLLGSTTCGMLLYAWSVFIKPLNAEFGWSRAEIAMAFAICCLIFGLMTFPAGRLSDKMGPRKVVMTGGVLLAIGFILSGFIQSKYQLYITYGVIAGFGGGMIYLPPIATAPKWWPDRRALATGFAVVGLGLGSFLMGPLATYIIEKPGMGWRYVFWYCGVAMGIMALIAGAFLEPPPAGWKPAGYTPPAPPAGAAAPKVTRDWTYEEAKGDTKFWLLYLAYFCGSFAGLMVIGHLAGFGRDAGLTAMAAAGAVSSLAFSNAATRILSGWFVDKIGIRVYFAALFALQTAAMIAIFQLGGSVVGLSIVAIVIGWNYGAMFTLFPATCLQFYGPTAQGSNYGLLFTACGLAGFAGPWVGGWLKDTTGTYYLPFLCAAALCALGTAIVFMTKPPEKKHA
Method: (§1) The cultures were grown at 37 °C and 180 r.p.m. in an incubator shaker (Multitron, Infors HT). Protein expression was induced at OD600 ~0.5 by addition of IPTG to a final concentration of 0.25 mM. After 4 h, bacteria were pelleted (5,200 × g, 10 min, room temperature) and resuspended in uptake buffer (20 mM Bis-Tris propane-HCl (pH 6.7), 250 mM KCl) to a bacteria density of OD600 12. […] Furthermore, [3-3 H] propionic acid sodium salt ([^3H]propionate, American Radiolabeled Chemicals, specific activity 30 Ci/mmol), n-[2,3-3 H] butyric acid sodium salt ([^3H]butyrate, American Radiolabeled Chemicals, specific activity 120 Ci/mmol), and [1–14 C] pyruvic acid sodium salt ([^14C]pyruvate, specific activity 0.055 Ci/mmol American Radiolabeled Chemicals) were also used for transport experiments. […] Uptake experiments were performed in 2 ml reaction tubes (Eppendorf) at 30 °C under agitation (1,000 r.p.m., Thermomixer compact, Eppendorf). […] Bacteria were immediately pelleted by centrifugation (21,000 × g, 4 min, room temperature) and washed two times with 900 μl stop buffer. Finally, bacteria were lyzed in 50 μl 5% (w/v) sodium dodecylsulfate and transferred into a white 96-well plate (Optiplate, PerkinElmer). 150 µl of scintillation cocktail (MicroScint 40, PerkinElmer) were added before measuring each reaction for 2 min with a scintillation counter (TopCount NXT, PerkinElmer). For data analysis, the signal of the empty vector was subtracted from the transporter signal. […] Cpm values of each experiment were normalized with respect to the determined upper plateau value, i.e., the fitted upper plateau value corresponds to 100%. The arithmetic average of three independent experiments was calculated. Three independent and normalized pH-dependence curves were then averaged. For data analysis Prism6 (GraphPad Software) was used. […] Equal amounts of bacteria expressing SfMCT variants were loaded on 14% SDS/polyacrylamide gels. His-tagged transporters were detected using an anti-His5 (Qiagen, catalogue number 34660, primary antibody) at a dilution of 1:3,000 and a goat anti-mouse IgG (H + L) HRP conjugate antibody (Biorad, catalogue number 172-1011, secondary antibody) at a dilution of 1:2,500.

SfMCT [2] = target: T1, SfMCT; assay: Uptake of [14C]L-lactate and other radiolabeled monocarboxylates into SfMCT expressing E. coli JA202; conditions: for Uptake of radioligand by SfMCT (cpm): 0.1 µCi radiolabeled monocarboxylate, SfMCT-overexpressing bacteria; for transport by SfMCT (in words): uptake experiment using radiolabeled compound
Method: as §1

[3] = tested on: vector-transformed E. coli JA202; assay: Uptake of radioligands into vector-transformed bacteria; conditions: 0.1 µCi radiolabeled monocarboxylate; vector-transformed bacteria
Method: The cultures were grown at 37 °C and 180 r.p.m. in an incubator shaker (Multitron, Infors HT). Protein expression was induced at OD600 ~0.5 by addition of IPTG to a final concentration of 0.25 mM. After 4 h, bacteria were pelleted (5,200 × g, 10 min, room temperature) and resuspended in uptake buffer (20 mM Bis-Tris propane-HCl (pH 6.7), 250 mM KCl) to a bacteria density of OD600 12. […] Furthermore, [3-3 H] propionic acid sodium salt ([^3H]propionate, American Radiolabeled Chemicals, specific activity 30 Ci/mmol), n-[2,3-3 H] butyric acid sodium salt ([^3H]butyrate, American Radiolabeled Chemicals, specific activity 120 Ci/mmol), and [1–14 C] pyruvic acid sodium salt ([^14C]pyruvate, specific activity 0.055 Ci/mmol American Radiolabeled Chemicals) were also used for transport experiments. […] Uptake experiments were performed in 2 ml reaction tubes (Eppendorf) at 30 °C under agitation (1,000 r.p.m., Thermomixer compact, Eppendorf). […] Bacteria were immediately pelleted by centrifugation (21,000 × g, 4 min, room temperature) and washed two times with 900 μl stop buffer. Finally, bacteria were lyzed in 50 μl 5% (w/v) sodium dodecylsulfate and transferred into a white 96-well plate (Optiplate, PerkinElmer). 150 µl of scintillation cocktail (MicroScint 40, PerkinElmer) were added before measuring each reaction for 2 min with a scintillation counter (TopCount NXT, PerkinElmer). For data analysis, the signal of the empty vector was subtracted from the transporter signal. […] Cpm values of each experiment were normalized with respect to the determined upper plateau value, i.e., the fitted upper plateau value corresponds to 100%. The arithmetic average of three independent experiments was calculated. Three independent and normalized pH-dependence curves were then averaged. For data analysis Prism6 (GraphPad Software) was used. The expression of SfMCT variants in E. coli JA202 (MC4100 glcA::cat lldP::kan)[15] was verified by Western blotting. Equal amounts of bacteria expressing SfMCT variants were loaded on 14% SDS/polyacrylamide gels. His-tagged transporters were detected using an anti-His5 (Qiagen, catalogue number 34660, primary antibody) at a dilution of 1:3,000 and a goat anti-mouse IgG (H + L) HRP conjugate antibody (Biorad, catalogue number 172-1011, secondary antibody) at a dilution of 1:2,500.

O=C(O)CC(O)(CC(=O)O)C(=O)O [citrate]
reduction of [14C]L-lactate uptake (SfMCT [1]): 5–14%

C[C@H](N)C(=O)O [L-alanine]
competition with [14C]L-lactate uptake (in words) (SfMCT [1]): absence of any competition

O=C(O)C(=O)O [oxalate]
Relative uptake of [14C]L-lactate (in %) (SfMCT [1]): 95.2988% | reduction of [14C]L-lactate uptake (SfMCT [1]): 5–14%

O=C(O)/C=C/C(=O)O [fumarate]
Relative uptake of [14C]L-lactate (in %) (SfMCT [1]): 61.3393%

O=C(O)CC(=O)O [malonate]
Relative uptake of [14C]L-lactate (in %) (SfMCT [1]): 91.3566% | reduction of [14C]L-lactate uptake (SfMCT [1]): 5–14%

CCCC(=O)O [butyrate]
Uptake of radioligand by SfMCT (cpm) (SfMCT [2]): 160.333 cpm | transport by SfMCT (in words) (SfMCT [2]): not transported; also recorded: without being transported | competition with [14C]L-lactate uptake (in words) (SfMCT [1]): significantly reduced | Uptake of radioligand by vector (cpm) [3]: 197.333 cpm

N#CC(C#N)=NNc1cccc(Cl)c1 [CCCP, carbonyl cyanide 3-chlorophenylhydrazone, reference compound]
effect on uptake of [14C]L-lactate (in words) (SfMCT [1]; 20 µM CCCP): completely abolished

C[C@@H](N)C(=O)O [D-alanine]
competition with [14C]L-lactate uptake (in words) (SfMCT [1]): absence of any competition

CC(=O)C(=O)O [pyruvate]
Uptake of radioligand by SfMCT (cpm) (SfMCT [2]): 2342.67 cpm | transport by SfMCT (in words) (SfMCT [2]): not transported; also recorded: does not transport | Uptake of radioligand by vector (cpm) [3]: 2551.22 cpm

CC(=O)O [acetate]
Relative uptake of [14C]L-lactate (in %) (SfMCT [1]): 90.2435%

O=C(O)CCC(=O)O [succinate]
Relative uptake of [14C]L-lactate (in %) (SfMCT [1]): 57.9601%

CC(C)[C@@H]1NC(=O)[C@H](C)OC(=O)[C@@H](C(C)C)NC(=O)[C@@H](C(C)C)OC(=O)[C@H](C(C)C)NC(=O)[C@H](C)OC(=O)[C@@H](C(C)C)NC(=O)[C@@H](C(C)C)OC(=O)[C@H](C(C)C)NC(=O)[C@H](C)OC(=O)[C@@H](C(C)C)NC(=O)[C@@H](C(C)C)OC1=O [valinomycin, reference compound]
effect on transport of [14C]L-lactate (in words) (SfMCT [1]; 20 µM valinomycin): no effect

C[C@@H](O)CC(=O)O [3-HBA, (R)-3-hydroxybutyrate]
Relative uptake of [14C]L-lactate (in %) (SfMCT [1]): 93.0096% | reduction of [14C]L-lactate uptake (SfMCT [1]): 5–14%

CCC(=O)O [propionate]
Uptake of radioligand by SfMCT (cpm) (SfMCT [2]): 90.6667 cpm | transport by SfMCT (in words) (SfMCT [2]): not transported; also recorded: without being transported | Relative uptake of [14C]L-lactate (in %) (SfMCT [1]): 58.2752% | competition with [14C]L-lactate uptake (in words) (SfMCT [1]): significantly reduced | Uptake of radioligand by vector (cpm) [3]: 198.333 cpm

O=CO [formate]
Relative uptake of [14C]L-lactate (in %) (SfMCT [1]): 96.2179%
